From patent US8470872B2, “Compounds with activity at estrogen receptors” (Acadia Pharmaceuticals Inc., priority 2007, dated 2013)

How the values were obtained:
[1] = target: T1, ERβ (Homo sapiens, UniProt Q92731); experiment: R-SAT (Receptor Selection and Amplification Technology) functional assay, ERβ; format: cell-based; parameters: expressed in transfected cells; host or cells: NIH-3T3 fibroblasts, transient transfection; conditions: NIH-3T3 fibroblasts transfected with receptor, na = not active; for EC50: read-out: R-SAT ERβ pEC50 (converted)
T1 sequence (Q92731 whole entry, species assumed): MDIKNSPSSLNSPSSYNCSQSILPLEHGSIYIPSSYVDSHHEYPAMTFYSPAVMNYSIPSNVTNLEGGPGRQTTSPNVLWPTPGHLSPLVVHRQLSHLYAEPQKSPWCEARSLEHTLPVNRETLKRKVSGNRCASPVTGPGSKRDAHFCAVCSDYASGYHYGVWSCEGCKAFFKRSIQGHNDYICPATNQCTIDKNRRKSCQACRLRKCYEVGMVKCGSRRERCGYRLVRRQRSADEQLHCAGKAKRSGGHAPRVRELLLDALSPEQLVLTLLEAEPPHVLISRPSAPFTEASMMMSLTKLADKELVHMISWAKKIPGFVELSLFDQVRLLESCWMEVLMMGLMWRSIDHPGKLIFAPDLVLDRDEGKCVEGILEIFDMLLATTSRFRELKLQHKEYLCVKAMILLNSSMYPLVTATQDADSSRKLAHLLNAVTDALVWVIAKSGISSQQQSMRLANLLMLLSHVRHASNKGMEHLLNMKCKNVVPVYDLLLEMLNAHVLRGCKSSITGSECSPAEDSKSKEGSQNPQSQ
Text: (§1) R-SAT® (Receptor Selection and Amplification Technology) is a cell-based functional assay that allows one to monitor receptor-dependent proliferative responses and has been described elsewhere. The technology has been validated for a number of receptors including GPCRs (Brauner-Osborne and Brann 1996), RTKs (Burstein et al. 1998), cytokine receptors (Piu et al. 2002) and nuclear receptors (Piu et al. 2005; Piu et al. 2006). This process is achieved by partial cellular transformation via loss of contact inhibition and growth factor dependency. Monitoring is achieved by transfecting the cells with a β-galactosidase reporter gene vector whose expression is under a constitutively active promoter. Briefly, NIH-3T3 fibroblasts were plated overnight in 96-wells plates in DMEM 10% calf serum (Hyclone) and grown to 60-70% confluency prior to transfection. Transient transfections were performed using Polyfect (Qiagen) according to manufacturer's instructions. Typically a transfection mix would consist of the receptor and the β-galactosidase expression vectors. Sixteen hours post-transfection, cells were incubated with different doses of ligand in DMEM containing 30% Ultraculture (Hyclone) and 0.4% calf serum (Hyclone) to generate a dose response curve. After 5 days, plates were developed by adding onto the washed cells a solution containing the β-galactosidase substrate o-nitrophenyl-D-galacto pyranoside ONPG (in phosphate-buffered saline with 5% Nonidet P-40 detergent) as described (Piu et al. 2002). Plates were read using a microplate reader at 420 nm. Data from R-SAT® assays were fit to the equation: r=A+B(x/(x+c)), where A=minimum response, B=maximum response minus minimum response, c=EC50, r=response, and x=concentration of ligand. Curves were generated using the curve fitting softwares Excel Fit and GraphPad Prism (San Diego, Calif.).

[2] = target: T2, ERα (Homo sapiens, UniProt P03372); experiment: Luciferase reporter gene assay (3*ERE) in HEK293 cells, ERα; format: cell-based; conditions: 48 hours with test compounds; for EC50: read-out: Luciferase ERα pEC50 (converted)
T2 sequence (P03372 1-595): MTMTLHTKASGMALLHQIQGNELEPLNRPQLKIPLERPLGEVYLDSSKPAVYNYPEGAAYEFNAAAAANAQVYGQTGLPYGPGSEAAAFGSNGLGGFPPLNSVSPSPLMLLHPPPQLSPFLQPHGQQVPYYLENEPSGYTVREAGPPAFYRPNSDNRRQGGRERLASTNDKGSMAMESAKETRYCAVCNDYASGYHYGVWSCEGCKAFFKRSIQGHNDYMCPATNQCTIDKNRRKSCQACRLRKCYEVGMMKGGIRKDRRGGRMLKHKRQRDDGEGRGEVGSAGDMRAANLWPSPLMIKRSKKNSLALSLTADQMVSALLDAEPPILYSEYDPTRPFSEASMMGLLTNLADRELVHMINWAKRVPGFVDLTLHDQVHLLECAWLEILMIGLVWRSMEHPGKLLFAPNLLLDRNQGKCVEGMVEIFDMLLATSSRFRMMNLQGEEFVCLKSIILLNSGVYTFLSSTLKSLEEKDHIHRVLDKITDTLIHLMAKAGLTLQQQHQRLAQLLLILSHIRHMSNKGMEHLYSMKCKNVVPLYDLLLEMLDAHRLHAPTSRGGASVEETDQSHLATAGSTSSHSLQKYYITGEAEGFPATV
Protocol: (§2) HEK293 cells were grown to 70% confluency in DMEM containing 10% calf serum (Hyclone) prior to transfection. On the day of transfection (day 1), expression vectors for ERa or ERb were cotransfected along a construct containing a synthetic 3*ERE (estrogen response element) upstream of the luciferase gene (Panomics), using Polyfect (Qiagen) per manufacturer's recommendations. Sixteen hours post-transfection, cells were incubated in serum free DMEM. On day 3, cells were incubated with the test compounds for 48 hours in serum free DMEM. Cells extracts were then obtained by lyzing and the Luciferase activity measured. All of these steps were performed using a commercially available kit (Promega).

[3] = target: T2, ERα; experiment: R-SAT (Receptor Selection and Amplification Technology) functional assay, ERα; format: cell-based; parameters: expressed in transfected cells; host or cells: NIH-3T3 fibroblasts, transient transfection; conditions: NIH-3T3 fibroblasts transfected with receptor, na = not active; for EC50: read-out: R-SAT ERα pEC50 (converted)
Text: as §1

[4] = target: T1, ERβ; experiment: Luciferase reporter gene assay (3*ERE) in HEK293 cells, ERβ; format: cell-based; conditions: 48 hours with test compounds; for EC50: read-out: Luciferase ERβ pEC50 (converted)
Protocol: as §2

[5] = target: T2, ERα; experiment: Competitive 3H-estradiol binding assay, ERα; conditions: cytosolic extracts of transfected HEK293T cells, 1 nM 3H-estradiol; read-out: Binding ERα pKi (converted)
Protocol: (§3) HEK293T cells were transiently transfected for 48 hours with expression vectors encoding ERα or ERβ, before being serum starved for 4-6 hours. Cells were then harvested by scraping in ice-cold PBS and subsequently lysed using a cold buffer containing 10 mM Tris pH 7.4, 1 mM EDTA, 1 mM DTT before being subjected to polytron twice for 10 seconds. Cytosolic extracts were isolated by centrifugation at 15000 g for 30 minutes at 4° C. Competitive binding of the test compounds or the estradiol control was performed on 20 uL extract by overnight incubation at 4° C. in a total volume of 100 μL containing 1 nM ^3H-estradiol (Perkin Elmer, Boston, Mass.). The bound fraction was separated from the unbound one by the addition of 100 μL of Dextran coated charcoal, incubated for 10 minutes and subsequent centrifugation at 1000 rpm for 10 minutes. Samples (100 μL per sample) were then analyzed by liquid scintillation. Data was then analyzed using the curve fitting software GraphPad Prism.

[6] = target: T1, ERβ; experiment: Competitive 3H-estradiol binding assay, ERβ; conditions: cytosolic extracts of transfected HEK293T cells, 1 nM 3H-estradiol; read-out: Binding ERβ pKi (converted)
Protocol: as §3

Row | Compound | R-SAT ERβ % Eff [1] [%] | EC50 [1] [nM] | Luciferase ERα % Eff [2] [%] | EC50 [2] [nM] | R-SAT ERα % Eff [3] [%] | EC50 [3] [nM] | Luciferase ERβ % Eff [4] [%] | EC50 [4] [nM] | Ki [5] [nM] | Ki [6] [nM]
1 | Oc1ccc(C23CCCCCC2Oc2cccc(F)c23)cc1 (single isomer, unassigned) [Compound 231, 4-(1-Fluoro-6,7,8,9,10,10a-hexahydro-5aH-benzo[b]cyclohepta[d]-furan-10a-yl)phenol] | 91 | 1 | 43 | 200 | 86 | 158 | 114 | 0.158 |  | 
2 | Oc1ccc(C23CCCCCC2Oc2cccc(F)c23)cc1 (single isomer, unassigned) [Compound 232, 4-(1-Fluoro-6,7,8,9,10,10a-hexahydro-5aH-benzo[b]cyclohepta[d]-furan-10a-yl)phenol] | 76 | 10 | 27 | 1260 | 37 | 794 | 80 | 7.94 |  | 
3 | Oc1ccc(C23CCCCCC2Oc2cccc(F)c23)cc1 (single isomer, unassigned) [Compound 982, 4-(1-Fluoro-6,7,8,9,10,10a-hexahydro-5aH-benzo[b]cyclohepta[d]-furan-10a-yl)phenol] | 87 | 0.0501 |  |  | 108 | 15.8 |  |  |  | 
4 | Oc1ccc(C23CCCCC2Oc2cccc(F)c23)cc1 (centres unmarked) [Compound 130, 4-(1-Fluoro-5a,6,7,8,9,9a-hexahydrodibenzo[b,d]furan-9a-yl)phenol] | 97 | 6.31 | 51 | 631 | 70 | 631 | 129 | 2.51 | 126 | 25.1
5 | Oc1ccc(C23CCCCC=C2Oc2cccc(F)c23)cc1 (centres unmarked) [Compound 349, (E)-4-(1-Fluoro-8,9,10,10a-tetrahydro-7H-benzo[b]cyclohepta-[d]furan-10a-yl)phenol] | 24 |  | 6.4 |  | 16 |  |  | 316 |  | 
6 | Oc1ccc(C23CCCCCC2Oc2c(F)cccc23)cc1 (centres unmarked) [Compound 447, 4-(4-Fluoro-6,7,8,9,10,10a-hexahydro-5aH-benzo[b]cyclohepta-[d]furan-10a-yl)phenol] | 85 | 5.01 | 25 | 398 | 97 | 398 | 122 | 0.631 |  | 
7 | Oc1ccc(C23CCCCCC2Oc2ccc(F)cc23)cc1 (centres unmarked) [Compound 448, 4-(2-Fluoro-6,7,8,9,10,10a-hexahydro-5aH-benzo[b]cyclohepta[d]-furan-10a-yl)phenol] | 83 | 1.26 | 36 | 316 | 92 | 398 | 114 | 0.1 |  | 
8 | Oc1ccc(C23CCCCCC2Oc2ccccc23)cc1 (centres unmarked) [Compound 807, 4-(6,7,8,9,10,10a-Hexahydro-5aH-benzo[b]cyclohepta[d]furan-10a-yl)phenol] | 99 | 1.26 | 51 | 316 | 93 | 398 | 81 | 0.316 | 79.4 | 5.01
9 | Oc1ccc(C23CCCCC2Oc2ccccc23)cc1 (centres unmarked) [Compound 961, 4-(5a,6,7,8,9,9a-Hexahydrodibenzo[b,d]furan-9a-yl)phenol] | 100 | 10 | 54 | 794 | 95 | 1000 | 86 | 7.94 |  | 
